US11254663B2 (BRISTOL-MYERS SQUIBB COMPANY, priority 2019, dated 2022)

Target: T1, FXR (Homo sapiens (Human), UniProt Q96RI1)
Test: FXR EC50 (FXR agonist potency reported with each Example)
Assay type: cell-based
Details: not given

T1 sequence (Q96RI1 262-486): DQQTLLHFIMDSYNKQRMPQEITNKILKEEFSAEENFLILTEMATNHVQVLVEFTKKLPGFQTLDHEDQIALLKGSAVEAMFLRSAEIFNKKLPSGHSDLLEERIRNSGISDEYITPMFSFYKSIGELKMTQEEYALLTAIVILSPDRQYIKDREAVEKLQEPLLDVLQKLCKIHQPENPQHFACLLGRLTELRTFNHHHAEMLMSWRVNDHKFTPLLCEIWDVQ

Row | Compound | EC50 [nM]
1 | CC1(c2nc(-c3cccc(N(CC45CCC(c6nc(C7CC7)no6)(CC4)CC5)C(=O)C45CC(F)(C4)C5)c3)no2)CC1 [Example 106, N-((4-(3-cyclopropyl-1,2,4-oxadiazol-5-yl)bicyclo[2.2.2]octan-1-yl)methyl)-3-fluoro-N-(3-(5-(1-methylcyclopropyl)-1,2,4-oxadiazol-3-yl)phenyl)bicyclo[1.1.1]pentane-1-carboxamide] | 58
2 | O=C(C1CC(F)(F)C1)N(CC12CCC(c3nnc(C4CC4)o3)(CC1)CC2)c1cccc(-c2nnc(C3CC3)o2)c1 [Example 135, N-((4-(5-cyclopropyl-1,3,4-oxadiazol-2-yl)bicyclo[2.2.2]octan-1-yl)methyl)-N-(3-(5-cyclopropyl-1,3,4-oxadiazol-2-yl)phenyl)-3,3-difluorocyclobutane-1-carboxamide] | 1110
3 | CC1(c2nc(C34CCC(CN(C(=O)C56CC(F)(C5)C6)c5cccc(-c6nnc(C7CC7)o6)c5)(CC3)CC4)no2)COC1 [Example 155, N-(3-(5-cyclopropyl-1,3,4-oxadiazol-2-yl)phenyl)-3-fluoro-N-((4-(5-(3-methyloxetan-3-yl)-1,2,4-oxadiazol-3-yl)bicyclo[2.2.2]octan-1-yl)methyl)bicyclo[1.1.1]pentane-1-carboxamide] | 72

Target: T1, FXR
Test: transient human FXR/Gal4-luciferase reporter assay
Assay type: cell-based
Details: not given
How it was run: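 HEK293 cells stably carrying a 5×Gal4 response element–firefly luciferase reporter were transiently transfected overnight with a Gal4 DBD–human FXR LBD fusion plasmid. Compound was added in DMSO and cells were incubated overnight at 37 °C, 5% CO2. Activity was read as Steady-Glo luminescence.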

Row | Compound | EC50 [nM]
4 | CCOc1ncc(-c2cccc(N(CC34CCC(c5nc(C(C)(C)C)no5)(CC3)CC4)C(=O)[C@H]3C[C@@H](OC)C3)c2)cn1 [Example 502, (1S,3S)—N-((4-(3-(tert-butyl)-1,2,4-oxadiazol-5-yl)bicyclo[2.2.2]octan-1-yl)methyl)-N-(3-(2-ethoxypyrimidin-5-yl)phenyl)-3-methoxycyclobutane-1-carboxamide] | 689
5 | CC(F)(F)c1nc(C23CCC(CN(C(=O)C45CC(F)(C4)C5)c4cccc(-c5ccc(OC(F)F)cc5)c4)(CC2)CC3)no1 [Example 528, N-((4-(5-(1,1-difluoroethyl)-1,2,4-oxadiazol-3-yl)bicyclo[2.2.2]octan-1-yl)methyl)-N-(4′-(difluoromethoxy)-[1,1′-biphenyl]-3-yl)-3-fluorobicyclo[1.1.1]pentane-1-carboxamide] | 73
6 | Cc1nc2ccc(-c3cccc(N(CC45CCC(c6nnc(C7CC7)o6)(CC4)CC5)C(=O)C4CC(C(F)F)C4)c3)cc2s1 (centres unmarked) [Example 562, N-((4-(5-cyclopropyl-1,3,4-oxadiazol-2-yl)bicyclo[2.2.2]octan-1-yl)methyl)-3-(difluoromethyl)-N-(3-(2-methylbenzo[d]thiazol-6-yl)phenyl)cyclobutane-1-carboxamide] | 318
7 | CC(C)(O)c1ccc(-c2cccc(N(CC34CCC(c5noc(C(C)(C)F)n5)(CC3)CC4)C(=O)NCC(F)(F)CO)c2)cc1 [Example 646, 3-(2,2-difluoro-3-hydroxypropyl)-1-((4-(5-(2-fluoropropan-2-yl)-1,2,4-oxadiazol-3-yl)bicyclo[2.2.2]octan-1-yl)methyl)-1-(4′-(2-hydroxypropan-2-yl)-[1,1′-biphenyl]-3-yl)urea] | 270

Same assay, conditions: Gal4-hFXR fusion construct, HEK293 reporter cells; response relative to 8 μM GW-4064

Row | Compound | EC50 [nM]
8 | O=C(N(CC12CCC(c3noc(C4(F)CC4)n3)(CC1)CC2)c1cccc(C2CC2)c1)C12CC(F)(C1)C2 [Example 573, N-(3-cyclopropylphenyl)-3-fluoro-N-((4-(5-(1-fluorocyclopropyl)-1,2,4-oxadiazol-3-yl)bicyclo[2.2.2]octan-1-yl)methyl)bicyclo[1.1.1]pentane-1-carboxamide] | 44
9 | CC(C)(C#N)Oc1ccc(-c2ccnc(N(CC34CCC(c5nc(C6CC6)no5)(CC3)CC4)C(=O)OC(C)(C)C(F)(F)F)c2)cc1 [Example 622, 1,1,1-trifluoro-2-methylpropan-2-yl(4-(4-((2-cyanopropan-2-yl)oxy)phenyl)pyridin-2-yl) ((4-(3-cyclopropyl-1,2,4-oxadiazol-5-yl)bicyclo[2.2.2]octan-1-yl)methyl)carbamate] | 34
10 | CCOc1ccc(-c2cccc(N(CC34CCC(c5noc(C6(C(F)(F)F)CC6)n5)(CC3)CC4)C(=O)C34CC(F)(C3)C4)c2)cc1 [Example 521, N-(4′-ethoxy-[1,1′-biphenyl]-3-yl)-3-fluoro-N-((4-(5-(1-(trifluoromethyl)cyclopropyl)-1,2,4-oxadiazol-3-yl)bicyclo[2.2.2]octan-1-yl)methyl)bicyclo[1.1.1]pentane-1-carboxamide] | 112
11 | CC(C)(C)c1nc(C23CCC(CN(C(=O)C45CC(F)(C4)C5)c4cccc(-c5cnc(C(F)(F)F)nc5)c4)(CC2)CC3)no1 [Example 443, N-((4-(5-(tert-butyl)-1,2,4-oxadiazol-3-yl)bicyclo[2.2.2]octan-1-yl)methyl)-3-fluoro-N-(3-(2-(trifluoromethyl)pyrimidin-5-yl)phenyl)bicyclo[1.1.1]pentane-1-carboxamide] | 357
12 | O=C(N(CC12CCC(c3nc(C4CC4)no3)(CC1)CC2)c1cccc(-c2cccc(C(F)(F)F)c2)c1)C12CC(F)(C1)C2 [Example 252, N-((4-(3-cyclopropyl-1,2,4-oxadiazol-5-yl)bicyclo[2.2.2]octan-1-yl)methyl)-3-fluoro-N-(3′-(trifluoromethyl)-[1,1′-biphenyl]-3-yl)bicyclo[1.1.1]pentane-1-carboxamide] | 833
13 | CC(C)Oc1ccc(-c2cc(N(CC34CCC(c5nc(C6CC6)no5)(CC3)CC4)C(=O)OC(C)(C)C(F)(F)F)ncc2F)cc1 [Example 617, 1,1,1-trifluoro-2-methylpropan-2-yl ((4-(3-cyclopropyl-1,2,4-oxadiazol-5-yl)bicyclo[2.2.2]octan-1-yl)methyl)(5-fluoro-4-(4-isopropoxyphenyl)pyridin-2-yl)carbamate] | 81
14 | CCOc1ncc(-c2cccc(N(CC34CCC(c5nc(C6CC6)no5)(CC3)CC4)C(=O)C34CC(F)(C3)C4)c2)cn1 [Example 289, N-((4-(3-cyclopropyl-1,2,4-oxadiazol-5-yl)bicyclo[2.2.2]octan-1-yl)methyl)-N-(3-(2-ethoxypyrimidin-5-yl)phenyl)-3-fluorobicyclo[1.1.1]pentane-1-carboxamide] | 48
15 | O=C(N(CC12CCC(c3cc(C(F)(F)F)ccn3)(CC1)CC2)c1cccc(-c2ccc(NS(=O)(=O)C3CC3)cc2)c1)C12CC(F)(C1)C2 [Example 354, N-(4′-(Cyclopropanesulfonamido)-[1,1′-biphenyl]-3-yl)-3-fluoro-N-((4-(4-(trifluoromethyl)pyridin-2-yl)bicyclo[2.2.2]octan-1-yl)methyl)bicyclo[1.1.1]pentane-1-carboxamide] | 489
16 | Cn1ncc2cc(-c3cccc(N(CC45CCC(c6nc(C7CC7)no6)(CC4)CC5)C(=O)C45CC(F)(C4)C5)c3)ccc21 [Example 304, N-((4-(3-cyclopropyl-1,2,4-oxadiazol-5-yl)bicyclo[2.2.2]octan-1-yl)methyl)-3-fluoro-N-(3-(1-methyl-1H-indazol-5-yl)phenyl)bicyclo[1.1.1]pentane-1-carboxamide] | 248
17 | CC(C)(C)c1noc(C23CCC(CN(C(=O)C45CC(F)(C4)C5)c4cccc(-c5cnc(C(F)(F)F)nc5)c4)(CC2)CC3)n1 [Example 366, N-((4-(3-(tert-butyl)-1,2,4-oxadiazol-5-yl)bicyclo[2.2.2]octan-1-yl)methyl)-3-fluoro-N-(3-(2-(trifluoromethyl)pyrimidin-5-yl)phenyl)bicyclo[1.1.1]pentane-1-carboxamide] | 454
18 | CC(C)(O)c1ccc(-c2cccc(N(CC34CCC(c5noc(C(C)(C)F)n5)(CC3)CC4)C(=O)N[C@H]3C[C@]4(C[C@@H](O)C4)C3)c2)cc1 (stereo partly drawn) [Example 664, 1-((4-(5-(2-fluoropropan-2-yl)-1,2,4-oxadiazol-3-yl)bicyclo[2.2.2]octan-1-yl)methyl)-1-(4′-(2-hydroxypropan-2-yl)-[1,1′-biphenyl]-3-yl)-3-((2S,4S,6S)-6-hydroxyspiro[3.3]heptan-2-yl)urea] | 47
19 | CC(C)(C)c1nc(C23CCC(CN(C(=O)C45CC(F)(C4)C5)c4cccc(-c5cnc6nc(C7CC7)sc6c5)c4)(CC2)CC3)no1 [Example 458, N-((4-(5-(tert-butyl)-1,2,4-oxadiazol-3-yl)bicyclo[2.2.2]octan-1-yl)methyl)-N-(3-(2-cyclopropylthiazolo[4,5-b]pyridin-6-yl)phenyl)-3-fluorobicyclo[1.1.1]pentane-1-carboxamide] | 251
20 | Cc1nc2ccc(-c3ccnc(N(CC45CCC(c6nc(C7CC7)no6)(CC4)CC5)C(=O)C45CC(F)(C4)C5)c3)cc2o1 [Example 550, N-((4-(3-cyclopropyl-1,2,4-oxadiazol-5-yl)bicyclo[2.2.2]octan-1-yl)methyl)-3-fluoro-N-(4-(2-methylbenzo[d]oxazol-6-yl)pyridin-2-yl)bicyclo[1.1.1]pentane-1-carboxamide] | 70
21 | CC(C)(C)c1noc(C23CCC(CN(C(=O)C45CC(F)(C4)C5)c4cccc(-c5ccc(OC(F)F)cc5)c4)(CC2)CC3)n1 [Example 368, N-((4-(3-(tert-butyl)-1,2,4-oxadiazol-5-yl)bicyclo[2.2.2]octan-1-yl)methyl)-N-(4′-(difluoromethoxy)-[1,1′-biphenyl]-3-yl)-3-fluorobicyclo[1.1.1]pentane-1-carboxamide] | 135
22 | O=C(C1CC(O)(C(F)(F)F)C1)N(CC12CCC(NS(=O)(=O)C(F)(F)F)(CC1)CC2)c1cccc(-c2ccc(OC(F)F)cc2)c1 (stereo not drawn) [Example 603, (cis)-N-(4′-(difluoromethoxy)-[1,1′-biphenyl]-3-yl)-3-hydroxy-3-(trifluoromethyl)-N-((4-((trifluoromethyl)sulfonamido)bicyclo[2.2.2]octan-1-yl)methyl)cyclobutane-1-carboxamide] | 1820
23 | CC(C)(C)NC(=O)N(CC12CCC(c3noc(C(F)(F)F)n3)(CC1)CC2)c1cccc(-c2ccc(C(C)(C)OC(F)F)cc2)c1 [Example 613, 3-(tert-butyl)-1-(4′-(2-(difluoromethoxy)propan-2-yl)-[1,1′-biphenyl]-3-yl)-1-((4-(5-(trifluoromethyl)-1,2,4-oxadiazol-3-yl)bicyclo[2.2.2]octan-1-yl)methyl)urea] | 79
